We go through 1 compound from patent US8142799B2, “High potency clinical anti-craving treatment and method of use” (priority 2001, dated 2012).

As for `N[C@@H](CCC(=O)N[C@@H](CS)C(=O)NCC(=O)O)C(=O)O` [L-glutathione], the “time to PH breakdown” value (L-Glutathione at a PH value of roughly 7 in the amino-acid component) is “a few weeks”. Further, the “PH above which L-glutathione itself breaks down” value (at compounding) is “above 7.2”.
